Legend:
Zymoseptoria tritici = assay: Test A: wheat leaf blotch, spray on wheat seedlings, disease control rating; assay type: in vivo; conditions: 100 = 100% disease control, 0 = no disease control relative to the controls; for pest or weed control at 10 ppm: Rate 10 ppm; for pest or weed control at 250 ppm: Rate 250 ppm
From the text: (§1) General protocol for preparing test suspensions for Tests A-F: the test compounds were first dissolved in acetone in an amount equal to 3% of the final volume and then suspended at the desired concentration (in ppm) in acetone and purified water (50/50 mix by volume) containing 250 ppm of the surfactant PEG400 (polyhydric alcohol esters). The resulting test suspensions were then used in Tests A-F.
The test solution was sprayed to the point of run-off on wheat seedlings. The following day the seedlings were inoculated with a spore suspension of Zymoseptoria tritici (the causal agent of wheat leaf blotch) and incubated in a saturated atmosphere at 24° C. for 48 h, and then moved to a growth chamber at 20° C. for 17 days, after which time disease ratings were made.
(§2) A rating of 100 indicates 100% disease control and a rating of 0 indicates no disease control (relative to the controls). A dash (-) indicates the compound was not tested.

[1] = system: Puccinia recondita f. sp. tritici; assay: Test B: wheat leaf rust, spray on wheat seedlings, disease control rating; assay type: in vivo; conditions: Puccinia recondita, 192 h, 100 = 100% disease control, 0 = no disease control relative to the controls; for pest or weed control at 10 ppm: Rate 10 ppm; for pest or weed control at 250 ppm: Rate 250 ppm
Summary of the method: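 Compound in acetone (3% of final volume) was suspended at the stated ppm in acetone/water 50/50 with 250 ppm PEG400 and sprayed to run-off on wheat seedlings. Puccinia recondita spores were inoculated next day, then 24 h saturated atmosphere at 20 °C and 7 days at 20 °C. Rated 0–100% disease control versus controls.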

[2] = system: Blumeria graminis f. sp. tritici; assay: Test C: wheat powdery mildew, spray on wheat seedlings, disease control rating; assay type: in vivo; conditions: 192 h, 100 = 100% disease control, 0 = no disease control relative to the controls; for pest or weed control at 10 ppm: Rate 10 ppm; for pest or weed control at 250 ppm: Rate 250 ppm
From the text: as §1
The test suspension was sprayed to the point of run-off on wheat seedlings. The following day the seedlings were inoculated with a spore dust of Blumeria graminis f. sp. tritici, (also known as Erysiphe graminis f. sp. tritici, the causal agent of wheat powdery mildew) and incubated in a growth chamber at 20° C. for 8 days, after which time visual disease ratings were made.
as §2

Phakopsora pachyrhizi = assay: Test D: Asian soybean rust, spray on soybean seedlings, disease control rating; assay type: in vivo; conditions: Phakopsora pachyrhizi, 216 h, 100 = 100% disease control, 0 = no disease control relative to the controls; for pest or weed control at 10 ppm: Rate 10 ppm; for pest or weed control at 250 ppm: Rate 250 ppm
Summary of the method: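 Soybean seedlings sprayed to run-off with compound suspension (ppm, in 50/50 acetone/water with 250 ppm PEG400), inoculated next day with P. pachyrhizi spores, held 24 h saturated at 22°C then 8 days at 22°C. Visual rating 0-100% disease control relative to controls.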

Botrytis cinerea = assay: Test E: tomato Botrytis, spray on tomato seedlings, disease control rating; assay type: in vivo; conditions: 100 = 100% disease control, 0 = no disease control relative to the controls; for pest or weed control at 10 ppm: Rate 10 ppm; for pest or weed control at 250 ppm: Rate 250 ppm
From the text: as §1
The test suspension was sprayed to the point of run-off on tomato seedlings. The following day the seedlings were inoculated with a spore suspension of Botrytis cinerea (the causal agent of tomato Botrytis) and incubated in a saturated atmosphere at 20° C. for 48 h, and then moved to a growth chamber at 24° C. for 3 days, after which time visual disease ratings were made.
as §2

Row | Compound | melting point [°C] | pest or weed control at 10 ppm (Zymoseptoria tritici) [%] | pest or weed control at 10 ppm [1] [%] | pest or weed control at 10 ppm [2] [%] | pest or weed control at 10 ppm (Phakopsora pachyrhizi) [%] | pest or weed control at 10 ppm (Botrytis cinerea) [%] | pest or weed control at 250 ppm (Zymoseptoria tritici) [%] | pest or weed control at 250 ppm [1] [%] | pest or weed control at 250 ppm [2] [%] | pest or weed control at 250 ppm (Phakopsora pachyrhizi) [%] | pest or weed control at 250 ppm (Botrytis cinerea) [%]
1 | COC(=O)NCc1cc(-c2ncn(-c3c(F)cc([N+](=O)[O-])cc3F)n2)ccc1C [Compound 107] | 179 to 183 |  |  |  |  |  | 28 | 80 | 43 | 0 | 0
2 | COC(=O)NCc1cc(-c2cn(-c3c(F)cc(F)cc3Cl)nn2)ccc1C [Compound 122] | 125 to 129 |  |  |  |  |  | 71 | 99 | 0 | 100 | 0

Further lines, with some results ahead:

Row | melting point [°C] | Compound | pest or weed control at 10 ppm (Zymoseptoria tritici) [%] | pest or weed control at 10 ppm [1] [%] | pest or weed control at 10 ppm [2] [%] | pest or weed control at 10 ppm (Phakopsora pachyrhizi) [%] | pest or weed control at 10 ppm (Botrytis cinerea) [%] | pest or weed control at 250 ppm (Zymoseptoria tritici) [%] | pest or weed control at 250 ppm [1] [%] | pest or weed control at 250 ppm [2] [%] | pest or weed control at 250 ppm (Phakopsora pachyrhizi) [%] | pest or weed control at 250 ppm (Botrytis cinerea) [%]
3 | 171 to 174 | COC(=O)NCc1cc(-c2ccn(-c3c(F)cc(C#N)cc3F)n2)ccc1C [Compound 2] | 13 | 68 | 0 | 100 | 0 |  |  |  |  | 
4 | 148 to 149 | COC(=O)NCc1cc(-c2ccn(-c3c(F)cc(Cl)cc3F)n2)ccc1C [Compound 6, methyl N-[[5-[1-(4-chloro-2,6-difluorophenyl)-1H-pyrazol-3-yl]-2-methylphenyl]methyl]carbamate] | 7 | 98 | 0 | 100 | 0 |  |  |  |  | 
5 | 102 to 103 | COC(=O)NCc1cc(-c2ccn(-c3c(F)cc(OC(F)F)cc3F)n2)ccc1C [Compound 15, methyl N-[[5-[1-[4-(difluoromethoxy)-2,6-difluorophenyl]-1H-pyrazol-3-yl]-2-methylphenyl]methyl]carbamate] | 0 | 99 | 69 | 100 | 0 |  |  |  |  | 
6 | 106 to 108 | COC(=O)NCc1cc(-c2ccn(-c3c(F)cc(C(F)(F)F)cc3F)n2)ccc1C [Compound 64, methyl N-[[5-[1-[2,6-difluoro-4-(trifluoromethyl)phenyl]-1H-pyrazol-3-yl]-2-methylphenyl]methyl]carbamate] | 0 | 100 | 89 | 100 | 0 |  |  |  |  | 

— patent publication US11634393B2, “Substituted tolyl fungicides” (FMC CORPORATION, priority 2018, dated 2023)
